# Data as given in patent US20070197509A1, “Compositions and methods for modulating gated ion channels” (PainCeptor Pharma Corporation, priority 2005, published 2007).
# “Also recorded” adds a separate entry of the source. Like-named read-outs stand apart in the source and are kept apart here.
# Target: T1, hASIC1a (Homo sapiens, UniProt P78348)
# T1 sequence (P78348 1-528): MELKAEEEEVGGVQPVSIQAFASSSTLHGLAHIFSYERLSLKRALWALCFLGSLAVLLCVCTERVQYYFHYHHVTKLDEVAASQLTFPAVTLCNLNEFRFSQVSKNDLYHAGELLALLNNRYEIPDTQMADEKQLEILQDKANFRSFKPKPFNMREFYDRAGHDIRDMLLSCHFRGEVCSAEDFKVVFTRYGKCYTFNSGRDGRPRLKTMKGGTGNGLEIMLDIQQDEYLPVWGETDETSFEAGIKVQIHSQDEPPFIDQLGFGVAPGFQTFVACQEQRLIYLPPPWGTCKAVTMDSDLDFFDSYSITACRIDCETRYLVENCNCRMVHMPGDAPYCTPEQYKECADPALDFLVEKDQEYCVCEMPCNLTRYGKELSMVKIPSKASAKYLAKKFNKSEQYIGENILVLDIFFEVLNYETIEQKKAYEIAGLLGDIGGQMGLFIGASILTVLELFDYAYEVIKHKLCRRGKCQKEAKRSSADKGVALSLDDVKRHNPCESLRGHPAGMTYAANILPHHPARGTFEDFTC
# Experiment: Two-electrode voltage clamp in Xenopus laevis oocytes expressing hASIC1a (OpusExpress)
# Assay type: cell-based
# Set-up: expressed in transfected cells; host or cells: Xenopus laevis oocytes, nuclear microinjection of cDNA (e.g. in pCDNA3)
# Conditions: for effect on hASIC1a current evoked by pH 6.5 in oocytes (FIGS. 4A-4D): two-electrode voltage clamp, dose-response
# Description: Two-electrode voltage clamp electrophysiological assays in Xenopus laevis oocytes expressing gated ion channels are performed as follows:
# Oocytes are surgically removed from adult Xenopus laevis and treated for 2 h at room temperature with 1 mg/ml type I collagenase (Sigma) in Barth's solution under mild agitation. Selected oocytes at stage IV-V are defolliculated manually before nuclear microinjection of 2.5-5 ng of a suitable expression vector, such as pCDNA3, comprising the nucleotide sequence encoding a gated ion channel subunit protein. In such an experiment, the oocytes express homomultimeric proton-gated ion channels on their surface. In an alternate experiment, one, two, three or more vectors comprising the coding sequences for distinct gated ion channel subunits are co-injected in the oocyte nuclei. In the latter case, oocytes express heteromultimeric proton-gated ion channels. […] Once impaled with the microelectrodes, oocytes are continuously superfused at 10-12 ml/min with a modified Ringer's solution containing 97 mM NaCl, 2 mM KCl, 1.8 mM CaCl2, and 10 mM HEPES brought to pH 7.4 with NaOH (Control Ringer). Test Ringer solution is prepared by replacing HEPES with MES and adjusting the pH to the desired acidic value. Compounds of the present invention are prepared in both the Control and Test Ringer solutions and applied to oocytes at room temperature through a computer-controlled switching valve system. […] Similarly, recordings can also be acquired in an automated multichannel oocytes system as the OpusExpress™ (Molecular Devices, Sunnyvale, Calif., USA).
# Recordings were acquired from oocytes expressing homomeric hASIC1a using a two-electrode voltage-clamp configuration procedure as described herein.
# [1] = OpusExpress (OX), Tables A-F, h1a printed in some cells only, read-out: Biological Data (IC50 uM) h1a (OX)
# [2] = OpusExpress (OX), Tables A-F, h1a printed in some cells only
# [3] = Table H, read-out: IC50 (μM) Opus Express (h1a)
SMILES,Biological Data (IC50 uM) h1a (OX) [2],further results
"Cc1cc(OCCCN(C)Cc2ccccc2)c2ccccc2n1 [Compound 1, benzyl-methyl-[3-(2-methyl-quinolin-4-yloxy)-propyl]-amine]",,IC50 [1]: > 30 µM
"Cc1cc(OC2CCN(CCc3ccccc3)CC2)c2ccccc2n1 [Compound 2, 2-methyl-4-(1-phenethyl-piperidin-4-yloxy)-quinoline]",,IC50 [1]: > 30 µM
"c1ccc(CN2CCC(Oc3cc(-c4ccccc4)nc4ccccc34)CC2)cc1 [Compound 3, 4-(1-benzyl-piperidin-4-yloxy)-2-phenyl-quinoline]",Not Active (OX),
"Cc1cc(OC2CCN(C)CC2)c2ccccc2n1 [Compound 4, 2-methyl-4-(1-methyl-piperidin-4-yloxy)-quinoline]",,IC50 [1]: > 30 µM
"Cc1cc(OC2CCN(Cc3ccc(Cl)cc3)CC2)c2ccccc2n1 [Compound 5, 4[1-(4-chloro-benzyl)-piperidin-4-yloxy]-2-methyl-quinoline]",,"approx. % at 30 uM (OX) (30 uM, OpusExpress, kind of effect not given): approx. 15% at 30 uM (OX)"
"Cc1cc(OC2CCN(C(=O)c3ccccc3)CC2)c2ccccc2n1 [Compound 6, [4-(2-methyl-quinolin-4-yloxy)-piperidin-1-yl]-phenyl-methanone]",Not Active (OX),
"Cc1cc(OC2CCN(Cc3ccccc3)CC2)c2cc(Br)ccc2n1 [Compound 7, 4-(1-benzyl-piperidin-4-yloxy)-6-bromo-2-methyl-quinoline]",,IC50 [1]: 10 to 20 µM; effect on hASIC1a current evoked by pH 6.5 in oocytes (FIGS. 4A-4D) (OpusExpress): effective modulators; also recorded: dose-dependent reduction; IC50 [3]: 13.2 µM
"COc1ccc2nc(C)cc(OC3CCN(Cc4ccccc4)CC3)c2c1 [Compound 8, 4-(1-benzyl-piperidin-4-yloxy)-6-methoxy-2-methyl-quinoline]",,IC50 [1]: > 30 µM
"Cc1cc(OC2CCN(Cc3ccccc3)CC2)c2ccc(Cl)cc2n1 [Compound 9, 4-(1-benzyl-piperidin-4-yloxy)-7-chloro-2-methyl-quinoline]",Not Active (OX),
"FC(F)(F)c1cc(OC2CCN(Cc3ccccc3)CC2)c2cccc(C(F)(F)F)c2n1 [Compound 10, 4-(1-benzyl-piperidin-4-yloxy)-2,8-bis-trifluoromethyl-quinoline]",Not Active (OX),
"Clc1ccc2c(OC3CCN(Cc4ccccc4)CC3)ccnc2c1 [Compound 11, 4-(1-benzyl-piperidin-4-yloxy)-7-chloro-quinoline]",Not Active (OX),
"Cc1cc(OC2CCN(C(=O)OC(C)(C)C)CC2)c2ccccc2n1 [Compound 12, 4-(2-methyl-quinolin-4-yloxy)-piperidine-1-carboxylic acid tert butyl ester]",Not Active (OX),
"FC(F)(F)c1cc(OC2CCN(Cc3ccccc3)CC2)c2ccccc2n1 [Compound 13, 4-(1-benzyl-piperidin-4-yloxy)-2-trifluoromethyl-quinoline]",,IC50 [1]: 20 to 35 µM; IC50 [3]: 27.6 µM
"Cc1cc(OC2CCN(Cc3ccccc3)CC2)c2cccc(C)c2n1 [Compound 14, 4-(1-benzyl-piperidin-4-yloxy)-2,8-dimethyl-quinoline]",Not Active (OX),
"Cc1cc(OC2CCN(CC(C)(C)C)CC2)c2ccccc2n1 [Compound 15, 4-[1-(2,2-dimethyl-propyl)-piperidin-4-yloxy]-2-methyl-quinoline]",Not Active (OX),
"Cc1cc(OC2CCN(Cc3ccccc3)CC2)c2cccc(F)c2n1 [Compound 24, 4-(1-benzyl-piperidin-4-yloxy)-8-fluoro-2-methyl-quinoline]",,IC50 [3]: 1.25 µM
"Cc1cc(OC2CCN(CC(C)C)CC2)c2ccccc2n1 [Compound 29, 4-(1-isobutyl-piperidin-4-yloxy)-2-methyl-quinoline]",,IC50 [1]: > 30 µM
"CCc1nc(N(C)C2CCN(Cc3ccccc3)CC2)c2ccccc2n1 [Compound 32, (1-benzyl-piperidin-4-yl)-(2-ethyl-quinazolin-4-yl)-methyl-amine]",,IC50 [1]: 15 to 25 µM; effect on hASIC1a current evoked by pH 6.5 in oocytes (FIGS. 4A-4D) (OpusExpress): effective modulators; also recorded: dose-dependent reduction; IC50 [3]: 20.7 µM
"CCc1nc(NC2CCN(Cc3ccccc3)CC2)c2ccccc2n1 [Compound 33, (1-benzyl-piperidin-4-yl)-(2-ethyl-quinazolin-4-yl)-amine]",Not Active,
"COc1ccc(-c2cc(C(=O)N3CCN(CCc4ccccc4)CC3)c3ccccc3n2)cc1OC [Compound 42, [2-(3,4-dimethoxy-phenyl)-quinolin-4-yl]-(4-phenethyl-piperazin-1-yl)-methanone]",Not Active (OX),
"Cc1ccc(-c2nc(OCCCCCl)c3cc([N+](=O)[O-])ccc3n2)cc1 [Compound 109, 4-(4-chloro-butoxy)-6-nitro-2-p-tolyl-quinazoline]",Not Active (OX),
"COc1ccc(CN2CCC(Oc3cc(C)nc4ccccc34)CC2)cc1 [Compound 112, 4-[1-(4-Methoxy-benzyl)-piperidin-4-yloxy]-2-methyl-quinoline]",,IC50 [1]: 15 to 25 µM
"C=CCOC(=O)N1CCC(Oc2cc(C)nc3ccccc23)CC1 [Compound 113, 4-(2-methyl-quinolin-4-yloxy)-piperidine-1-carboxylic acid allyl ester]",,IC50 [1]: > 30 µM; IC50 [3]: 17.1 µM

# Now from value to molecule, other results behind:
Biological Data (IC50 uM) h1a (OX) [2],SMILES,further results
Not Active (OX),"COc1ccc(-c2cc(C(=O)N3CCN(Cc4ccc5c(c4)OCO5)CC3)c3cc(Cl)ccc3n2)c(O)c1 [Compound 45, (4-benzo[1,3]dioxol-5-ylmethyl-piperazin-1-yl)-[6-chloro-2-(2-hydroxy-4-methoxy-phenyl)-quinolin-4-yl]-methanone]",
Not Active (OX),"Cc1cc(N2CCN(C(=O)OC(C)(C)C)CC2)c2ccccc2n1 [Compound 59, 4-(2-methyl-quinolin-4-yl)-piperazine-1-carboxylic acid tert-butyl ester]",
Not Active (OX),"Cc1cc(N2CCN(c3ccccc3C#N)CC2)c2ccccc2n1 [Compound 60, 2-[4-(2-methyl-quinolin-4-yl)-piperazin-1-yl]-benzonitrile]",
Not Active (OX),"Cc1cc(N2CCN(c3ccc([N+](=O)[O-])cc3)CC2)c2ccccc2n1 [Compound 61, 2-methyl-4-[4-(4-nitro-phenyl)-piperazin-1-yl]-quinoline]",
Not Active (OX),"O=C(O)c1ccc(Nc2ncnc3ccccc23)cc1 [Compound 102, 4-(quinazolin-4-ylamino)-benzoic acid]",
Not Active (OX),"O=C(O)c1ccc(Nc2ncnc3ccc([N+](=O)[O-])cc23)cc1 [Compound 103, 4-(6-nitro-quinazolin-4-ylamino)-benzoic acid]",
Not Active (OX),"Cc1ccc(-c2nc(Nc3ccccc3)c3ccccc3n2)cc1 [Compound 104, Phenyl-(2-p-tolyl-quinazolin-4-yl)-amine]",
Not Active (OX),"Cc1ccc(-c2nc(NCCCC(=O)O)c3ccccc3n2)cc1 [Compound 105, 4-(2-p-tolyl-quinazolin-4-ylamino)-butyric acid]",
Not Active (OX),"Cc1ccc(-c2nc(N(C)c3ccc(C(=O)O)cc3)c3ccccc3n2)cc1 [Compound 106, 4-[methyl-(2-p-tolyl-quinazolin-4-yl)-amino]-benzoic acid]",
Not Active (OX),"Cc1ccc(-c2nc(NC3CCN(Cc4ccccc4)CC3)c3ccc(Cl)cc3n2)cc1 [Compound 108, (1-benzyl-piperidin-4-yl)-(7-chloro-2-p-tolyl-quinazolin-4-yl)-amine]",
Not Active (OX),"Cc1ccc(-c2nc(N3CCCCC3)c3ccc(Cl)cc3n2)cc1 [Compound 110, 7-chloro-4-piperidin-1-yl-2-p-tolyl-quinazoline]",
Not Active (OX),"CCc1nc(NCCOC)c2ccccc2n1 [Compound 111, (2-ethyl-quinazolin-4-yl)-(2-methoxy-ethyl)-amine]",
